EC50 data for 28 compounds are collected here from patent US10508104B2, “6-hydroxy-5-(phenyl/heteroarylsulfonyl)pyrimidin-4(1H)-one as APJ agonists” (Bristol-Myers Squibb Company, priority 2016, dated 2019).

SMILES strings stand for the structures.

The target in this assay is human APJ receptor (Homo sapiens (Human), UniProt P35414). Description: Intracellular cAMP accumulation assay (APJ hcAMP, HTRF). It counts as cell-based. The conditions noted are these: human APJ, intracellular cAMP accumulation; read-out: Human APJ cAMP EC50 Potency range. In outline:
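HEK293 cells stably expressing human APJ, 5,000 per well, incubated 30 min at rt with compound, […] and 2 μM forskolin. cAMP measured by HTRF against a cAMP standard curve as inhibition of forskolin-driven production. EC50 from variable-slope sigmoidal fit.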
Background: cAMP levels reflect the balance of adenylyl cyclase and phosphodiesterase activity.

Chain of human APJ receptor (P35414 whole entry): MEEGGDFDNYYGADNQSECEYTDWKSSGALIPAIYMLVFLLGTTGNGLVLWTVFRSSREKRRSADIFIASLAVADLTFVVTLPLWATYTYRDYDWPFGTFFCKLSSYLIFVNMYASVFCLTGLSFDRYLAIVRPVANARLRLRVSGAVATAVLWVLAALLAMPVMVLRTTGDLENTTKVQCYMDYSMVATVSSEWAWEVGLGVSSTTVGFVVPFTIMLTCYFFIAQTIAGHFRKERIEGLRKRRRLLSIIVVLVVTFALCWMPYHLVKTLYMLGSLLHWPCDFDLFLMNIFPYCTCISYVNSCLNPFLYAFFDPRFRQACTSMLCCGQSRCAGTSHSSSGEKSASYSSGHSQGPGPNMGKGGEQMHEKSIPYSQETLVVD

As for `CCCCc1nc(=O)c(S(=O)(=O)c2ccc(-c3ccncc3C)cc2)c(O)n1[C@@H](CC)c1cccc(OC)c1` [Example 144, 2-butyl-6-hydroxy-1-[(1S)-1-(3-methoxyphenyl)propyl]-5-[4-(3-methylpyridin-4-yl)benzenesulfonyl]-1,4-dihydropyrimidin-4-one], the 50% effective concentration (EC50) – broadly, the concentration needed to bring the measured effect to its halfway point – was in the range of 0.01 to 10 nM. For the compound `CCCCc1nc(=O)c(S(=O)(=O)c2ccc(-c3cncc(F)c3)cc2)c(O)n1[C@@H](CC)c1cccc(OC)c1` [Example 145, 2-butyl-5-[4-(5-fluoropyridin-3-yl)benzenesulfonyl]-6-hydroxy-1-[(1S)-1-(3-methoxyphenyl)propyl]-1,4-dihydropyrimidin-4-one], the EC50 lay within 0.01 to 10 nM. For `CCCCc1nc(=O)c(S(=O)(=O)c2ccc(-c3ccc(F)nc3)cc2)c(O)n1[C@@H](CC)c1cccc(OC)c1` [Example 146, 2-butyl-5-[4-(6-fluoropyridin-3-yl)benzenesulfonyl]-6-hydroxy-1-[(1S)-1-(3-methoxyphenyl)propyl]-1,4-dihydropyrimidin-4-one] the value was 0.01 to 10 nM; for `CCCCc1nc(=O)c(S(=O)(=O)c2ccc(-c3ccc(OC)nc3C)cc2)c(O)n1[C@@H](COC)c1ccccc1` [Example 147, 2-butyl-6-hydroxy-1-[(1R)-2-methoxy-1-phenylethyl]-5-[4-(6-methoxy-2-methylpyridin-3-yl)benzenesulfonyl]-1,4-dihydropyrimidin-4-one], 0.01 to 10 nM; for `CCCCc1nc(=O)c(S(=O)(=O)c2ccc(-c3ccnc(F)c3C)cc2)c(O)n1[C@@H](COC)c1ccccc1` [Example 148, 2-butyl-5-[4-(2-fluoro-3-methylpyridin-4-yl)benzenesulfonyl]-6-hydroxy-1-[(1R)-2-methoxy-1-phenylethyl]-1,4-dihydropyrimidin-4-one], 0.01 to 10 nM. With `CCCCc1nc(=O)c(S(=O)(=O)c2ccc(-c3cccnc3C)cc2)c(O)n1[C@@H](COC)c1ccccc1` [Example 149, 2-butyl-6-hydroxy-1-[(1R)-2-methoxy-1-phenylethyl]-5-[4-(2-methylpyridin-3-yl)benzenesulfonyl]-1,4-dihydropyrimidin-4-one] the figure was 0.01 to 10 nM; with `CCCCc1nc(=O)c(S(=O)(=O)c2ccc(-c3ccc(F)nc3C)cc2)c(O)n1[C@@H](COC)c1ccccc1` [Example 150, 2-butyl-5-[4-(6-fluoro-2-methylpyridin-3-yl)benzenesulfonyl]-6-hydroxy-1-[(1R)-2-methoxy-1-phenylethyl]-1,4-dihydropyrimidin-4-one], 0.01 to 10 nM.

Consider `CCCCc1nc(=O)c(S(=O)(=O)c2ccc(-c3cncc(C)c3)cc2)c(O)n1[C@@H](COC)c1ccccc1` [Example 151, 2-butyl-6-hydroxy-1-[(1R)-2-methoxy-1-phenylethyl]-5-[4-(5-methylpyridin-3-yl)benzenesulfonyl]-1,4-dihydropyrimidin-4-one], for which the EC50 lay within 0.01 to 10 nM. With `CCCCc1nc(=O)c(S(=O)(=O)c2ccc(-c3cnc(F)cc3C)cc2)c(O)n1[C@@H](COC)c1ccccc1` [Example 152, 2-butyl-5-[4-(6-fluoro-4-methylpyridin-3-yl)benzenesulfonyl]-6-hydroxy-1-[(1R)-2-methoxy-1-phenylethyl]-1,4-dihydropyrimidin-4-one] the figure was 0.01 to 10 nM. With `CCCCc1nc(=O)c(S(=O)(=O)c2ccc(-c3ccnc(C)c3)cc2)c(O)n1[C@@H](COC)c1ccccc1` [Example 153, 2-butyl-6-hydroxy-1-[(1R)-2-methoxy-1-phenylethyl]-5-[4-(2-methylpyridin-4-yl)benzenesulfonyl]-1,4-dihydropyrimidin-4-one] the figure was 0.01 to 10 nM; with `CCCCc1nc(=O)c(S(=O)(=O)c2ccc(-c3cc(C)nc(C)c3)cc2)c(O)n1[C@@H](COC)c1ccccc1` [Example 154, 2-butyl-5-[4-(2,6-dimethylpyridin-4-yl)benzenesulfonyl]-6-hydroxy-1-[(1R)-2-methoxy-1-phenylethyl]-1,4-dihydropyrimidin-4-one], 10 to 100 nM. With `CCCCc1nc(=O)c(S(=O)(=O)c2ccc(-c3ccncc3C)cc2)c(O)n1[C@H]1CCc2ccccc21` [Example 155, 2-butyl-1-[(1S)-2,3-dihydro-1H-inden-1-yl]-6-hydroxy-5-[4-(3-methylpyridin-4-yl)benzenesulfonyl]-1,4-dihydropyrimidin-4-one] the figure was 0.01 to 10 nM; with `CCCCc1nc(=O)c(S(=O)(=O)c2ccc(-c3ccnc(C)c3)cc2)c(O)n1[C@H]1CCc2ccccc21` [Example 156, 2-butyl-1-[(1S)-2,3-dihydro-1H-inden-1-yl]-6-hydroxy-5-[4-(2-methylpyridin-4-yl)benzenesulfonyl]-1,4-dihydropyrimidin-4-one], 100 to 300 nM; with `CCCCc1nc(=O)c(S(=O)(=O)c2ccc(-c3cccnc3C)cc2)c(O)n1[C@H]1CCc2ccccc21` [Example 157, 2-butyl-1-[(1S)-2,3-dihydro-1H-inden-1-yl]-6-hydroxy-5-[4-(2-methylpyridin-3-yl)benzenesulfonyl]-1,4-dihydropyrimidin-4-one], 0.01 to 10 nM. Turning to `CCCCc1nc(=O)c(S(=O)(=O)c2ccc(-c3ccncc3C)cc2)c(O)n1[C@H](C)c1cccc(C#N)c1` [Example 158, 3-[(1R)-1-{2-butyl-6-hydroxy-5-[4-(3-methylpyridin-4-yl)benzenesulfonyl]-4-oxo-1,4-dihydropyrimidin-1-yl}ethyl]benzonitrile], the EC50 was 0.01 to 10 nM. With `CCCCc1nc(=O)c(S(=O)(=O)c2ccc(-c3ccnc(F)c3C)cc2)c(O)n1[C@H](C)c1cccc(C#N)c1` [Example 159, 3-[(1R)-1-{2-butyl-5-[4-(2-fluoro-3-methylpyridin-4-yl)benzenesulfonyl]-6-hydroxy-4-oxo-1,4-dihydropyrimidin-1-yl}ethyl]benzonitrile] the figure was 0.01 to 10 nM; with `CCCCc1nc(=O)c(S(=O)(=O)c2ccc(-c3cncc(C)c3)cc2)c(O)n1[C@H]1CCc2ccccc21` [Example 160, 2-butyl-1-[(1S)-2,3-dihydro-1H-inden-1-yl]-6-hydroxy-5-[4-(5-methylpyridin-3-yl)benzenesulfonyl]-1,4-dihydropyrimidin-4-one], 100 to 300 nM. As for `CCCCc1nc(=O)c(S(=O)(=O)c2ccc(-c3cc(C)nc(C)c3)cc2)c(O)n1[C@H]1CCc2ccccc21` [Example 161, 2-butyl-1-[(1S)-2,3-dihydro-1H-inden-1-yl]-5-[4-(2,6-dimethylpyridin-4-yl)benzenesulfonyl]-6-hydroxy-1,4-dihydropyrimidin-4-one], the EC50 was 100 to 300 nM.

Take `CCCCc1nc(=O)c(S(=O)(=O)c2ccc(-c3cncc(F)c3)cc2)c(O)n1[C@H](C)c1cccc(C#N)c1` [Example 162, 3-[(1R)-1-{2-butyl-5-[4-(5-fluoropyridin-3-yl)benzenesulfonyl]-6-hydroxy-4-oxo-1,4-dihydropyrimidin-1-yl}ethyl]benzonitrile]: the EC50 was 10 to 100 nM.

Regarding `CCCCc1nc(=O)c(S(=O)(=O)c2ccc(-c3ccc(F)nc3)cc2)c(O)n1[C@H]1CCc2ccccc21` [Example 163, 2-butyl-1-[(1S)-2,3-dihydro-1H-inden-1-yl]-5-[4-(6-fluoropyridin-3-yl)benzenesulfonyl]-6-hydroxy-1,4-dihydropyrimidin-4-one], the EC50 is 0.01 to 10 nM. On to `CCCCc1nc(=O)c(S(=O)(=O)c2ccc(-c3ccnc(F)c3C)cc2)c(O)n1[C@H]1CCc2ccccc21` [Example 164, 2-butyl-1-[(1S)-2,3-dihydro-1H-inden-1-yl]-5-[4-(2-fluoro-3-methylpyridin-4-yl)benzenesulfonyl]-6-hydroxy-1,4-dihydropyrimidin-4-one], for which the concentration for a half-maximal effect (EC50) lay within 0.01 to 10 nM. For `CCCCc1nc(=O)c(S(=O)(=O)c2ccc(-c3cccnc3C)cc2)c(O)n1[C@@H](CC)c1cccc(OC)c1` [Example 165, 2-butyl-6-hydroxy-1-[(1S)-1-(3-methoxyphenyl)propyl]-5-[4-(2-methylpyridin-3-yl)benzenesulfonyl]-1,4-dihydropyrimidin-4-one] the value was 0.01 to 10 nM; for `CCCCc1nc(=O)c(S(=O)(=O)c2ccc(-c3ccc(F)nc3)cc2)c(O)n1[C@H](C)c1cccc(C#N)c1` [Example 166, 3-[(1R)-1-{2-butyl-5-[4-(6-fluoropyridin-3-yl)benzenesulfonyl]-6-hydroxy-4-oxo-1,4-dihydropyrimidin-1-yl}ethyl]benzonitrile], 10 to 100 nM; for `CCCCc1nc(=O)c(S(=O)(=O)c2ccc(-c3ccc(OC)nc3C)cc2)c(O)n1[C@H]1CCc2ccccc21` [Example 167, 2-butyl-1-[(1S)-2,3-dihydro-1H-inden-1-yl]-6-hydroxy-5-[4-(6-methoxy-2-methylpyridin-3-yl)benzenesulfonyl]-1,4-dihydropyrimidin-4-one], 0.01 to 10 nM. For `CCCCc1nc(=O)c(S(=O)(=O)c2ccc(-c3cncc(F)c3)cc2)c(O)n1[C@H]1CCc2ccccc21` [Example 168, 2-butyl-1-[(1S)-2,3-dihydro-1H-inden-1-yl]-5-[4-(5-fluoropyridin-3-yl)benzenesulfonyl]-6-hydroxy-1,4-dihydropyrimidin-4-one] the value was 0.01 to 10 nM; for `CCCCc1nc(=O)c(S(=O)(=O)c2ccc(-c3ccnc(F)c3C)cc2)c(O)n1[C@@H](CC)c1cccc(OC)c1` [Example 169, 2-butyl-5-[4-(2-fluoro-3-methylpyridin-4-yl)benzenesulfonyl]-6-hydroxy-1-[(1S)-1-(3-methoxyphenyl)propyl]-1,4-dihydropyrimidin-4-one], 0.01 to 10 nM; for `CCCCc1nc(=O)c(S(=O)(=O)c2ccc(-c3cnc(F)cc3C)cc2)c(O)n1[C@H]1CCc2ccccc21` [Example 170, 2-butyl-1-[(1S)-2,3-dihydro-1H-inden-1-yl]-5-[4-(6-fluoro-4-methylpyridin-3-yl)benzenesulfonyl]-6-hydroxy-1,4-dihydropyrimidin-4-one], 0.01 to 10 nM.

Take `CCCCc1nc(=O)c(S(=O)(=O)c2ccc(-c3ccc(F)nc3C)cc2)c(O)n1[C@H]1CCc2ccccc21` [Example 171, 2-butyl-1-[(1S)-2,3-dihydro-1H-inden-1-yl]-5-[4-(6-fluoro-2-methylpyridin-3-yl)benzenesulfonyl]-6-hydroxy-1,4-dihydropyrimidin-4-one]: the EC50 was 0.01 to 10 nM.
